Assay results reported in patent US20220306617A1, “SUBSTITUTED 1,3-PHENYL HETEROARYL DERIVATIVES AND THEIR USE IN THE TREATMENT OF DISEASE” (NOVARTIS AG, priority 2019, published 2022).
Structures can show the parent of a compound that is named as a salt.

Target: T1, abc isoform of human TMEM16A channel expressed in CHO cells (Homo sapiens, UniProt Q5XXA6, DEL476-501)
T1 construct: expressed in transfected cells; host or cells: CHO cells, doxycycline-inducible expression under Blasticidin/Zeocin selection
T1 sequence (Q5XXA6 with tags, fused parts or gaps isoform Q5XXA6-5 DEL539-564): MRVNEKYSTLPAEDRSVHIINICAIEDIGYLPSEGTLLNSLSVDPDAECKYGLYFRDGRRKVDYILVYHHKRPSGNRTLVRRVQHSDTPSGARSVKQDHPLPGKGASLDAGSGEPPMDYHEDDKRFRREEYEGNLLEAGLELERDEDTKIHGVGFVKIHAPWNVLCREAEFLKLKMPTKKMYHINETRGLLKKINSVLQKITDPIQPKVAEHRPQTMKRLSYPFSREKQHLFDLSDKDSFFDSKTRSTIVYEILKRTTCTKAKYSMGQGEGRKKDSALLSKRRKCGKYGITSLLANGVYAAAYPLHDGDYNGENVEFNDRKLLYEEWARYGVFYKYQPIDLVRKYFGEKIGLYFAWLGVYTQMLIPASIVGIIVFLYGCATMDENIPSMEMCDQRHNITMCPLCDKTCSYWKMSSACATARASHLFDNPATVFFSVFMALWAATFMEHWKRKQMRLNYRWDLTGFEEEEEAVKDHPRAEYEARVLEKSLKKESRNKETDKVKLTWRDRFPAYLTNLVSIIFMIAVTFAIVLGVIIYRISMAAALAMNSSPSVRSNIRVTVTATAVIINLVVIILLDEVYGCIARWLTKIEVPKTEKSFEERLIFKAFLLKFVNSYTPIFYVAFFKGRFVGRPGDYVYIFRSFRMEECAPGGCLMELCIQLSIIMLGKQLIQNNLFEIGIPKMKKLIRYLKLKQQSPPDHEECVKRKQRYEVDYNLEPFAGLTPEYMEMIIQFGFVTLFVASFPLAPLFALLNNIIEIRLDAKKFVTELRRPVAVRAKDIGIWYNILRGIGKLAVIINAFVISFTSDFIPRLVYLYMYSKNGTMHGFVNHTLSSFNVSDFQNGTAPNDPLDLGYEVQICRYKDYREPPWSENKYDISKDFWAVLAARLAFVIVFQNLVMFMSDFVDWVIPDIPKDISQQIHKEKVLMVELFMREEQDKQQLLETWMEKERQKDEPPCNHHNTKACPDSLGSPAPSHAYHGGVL
Test: Automated patch clamping (QPatch) assay to measure TMEM16A activity in whole-cell
Type: cell-based
Details: for EC50: CHO cells expressing human TMEM16A (abc), whole-cell automated patch clamp, Hill fit, read-out: TMEM16A QPATCH assay EC50 V3 EC50; for Emax: CHO, maximum current at highest dose relative to reference potentiator at maximal concentration (upper limit) and vehicle (lower limit), read-out: TMEM16A QPATCH assay EC50 V3 Assay Window (% TMEM16A max activation)
Experimental: Automated Patch Clamping Assay to Measure TMEM16A Activity in Whole-Cell
Chinese hamster ovary cells (CHO) cells expressing abc isoform of human TMEM16A channel (Ref) were grown in vented cell-culture flasks (Corning) containing cell culture medium (1×F-12 Ham, 10% FBS, 1% Penicillin-streptomycin, 5 μg/mL Blasticidin S HCl, 400 μg/mL Zeocin), maintained at 37° C. in an incubator with 5% C02, 95% 02 and 100% humidity. The cells were passaged every 2-3 days at 80-90% confluence by aspirating the cell culture medium, washing twice with 10 mL D-PBS then incubating with 4 mL Trypsin-EDTA for no longer than 5 minutes. Trypsin was neutralized with the addition of 32 mL growth medium to the cell suspension, the cells were counted using a viable-cell counter (Vi-CELL; Beckmann-Coulter) and new flasks were seeded at a cell density of 0.01, 0.02, or 0.05×10^6 cells per cm2 for 3, 2, or 1 day(s) growth, respectively. Cell suspension was diluted in the new 175 cm2 flask with 50 mL of growth medium. Doxycycline was used to induce the expression of TMEM16A channel protein and was added directly to the culture flask 18-24 hours in advance of assay at a final concentration of 1 μg/mL. Induced cells were washed with D-PBS and detached from their culture flasks by adding 10 mL of Detachin and incubating for 10 minutes. Once detached, 5 mL of QPatch assay medium (1×CHO-S-SFM II (Sigma), 25 mM HEPES) was added and the resultant cell suspension counted using the Vi-CELL viable cell counter. The optimal cell density for this QPatch assay is 2-5×1 06 cells/mL; re-adjusted as necessary with QPatch assay medium.
The ion channel activity of TMEM16A (abc) expressed in CHO cells was assed using an automated patch clamp system (Qpatch, Sophion). These systems use planar patch-clamp technology to enable high-resistance, continuous whole-cell recordings from multiple cells in parallel, whilst maintaining each individual cell as an isolated experiment. First, each well was primed with intracellular and extracellular solutions described below. Cells were spun down, washed and then resuspended using extracellular solution. Intracellular solution: 130 mM N-methyl-D-glucamine, 10 mM EGTA, 20 mM CaCl2, 1 mM MgCl2, 10 mM HEPES 10, 10 mM BAPTA, 99 mM Sucrose, 2 mM Mg-ATP, pH 7.3, 320 mOsm Extracellular solution: 130 mM N-methyl-D-glucamine, 10 mM EGTA, 20 mM CaCl2, 1 mM MgCl2, 10 mM HEPES 10, 10 mM BAPTA, 99 mM Sucrose, 2 mM Mg-ATP, pH 7.3, 320 mOsm. Resuspended cells were then added to each well and suction was applied from the intracellular side in order to position a cell on the chip aperture, form a high resistance (GO) seal and achieve a whole-cell recording configuration. Following successful whole cell access, cell membranes were maintained at a voltage of −70 mV until the voltage protocol is applied. From this voltage, membranes were depolarized to +70 mV for 1500 ms, and then hyperpolarized to […] before being depolarized again from −90 to +70 mV in a continuous ramp waveform. At the end of the ramp, the membrane voltage is stepped back to −70 mV until the next waveform was applied. Compounds were dissolved at 10 mM in 100% DMSO and then diluted into extracellular solution (0.3% DMSO final) to the desired final concentration. The assay lower and upper limit were defined as follow, average amplitude (nA) of the last 3 sweeps in the vehicle addition of each cell was considered the basal current (lower limit); the average maximum current response in 3 cells for a reference potentiator at maximal concentration (upper limit). Current values for each compound concentration were then plotted against […]. EC50 curves are fitted to concentration-response data using curve-fitting functions (Hill fit) within the QPatch software. Curve fitting is constrained between the lowest concentration (vehicle-only addition) and the highest current value measured within the concentration range. […]

SMILES: CCC(CC)NC(=O)c1cc(-c2cccc(-c3ncc(C(=O)N[C@H](C)C4CC4)o3)c2)[nH]n1 [Example 1.40, (R)-N-(1-Cyclopropylethyl)-2-(3-(5-(Pentan-3-Ylcarbamoyl)-1H-Pyrazol-3-yl)Phenyl)Oxazole-5-Carboxamide]
- EC50: 160 nM
- Emax: 93%

SMILES: C[C@H](NC(=O)c1cnc(-c2cccc(-c3nnc(C(=O)NC4CCC(F)(F)CC4)[nH]3)c2)o1)C1CC1 [Example 13.4, (S)-N-(1-Cyclopropylethyl)-2-(3-(5-((4,4-Difluorocyclohexyl)Carbamoyl)-4H-1,2,4-Triazol-3-Yl)Phenyl)Oxazole-5-Carboxamide]
- EC50: 940 nM
- Emax: 80%

SMILES: CCOC(=O)[C@@H](NC(=O)c1cnc(-c2cccc(-c3nc(C(=O)NC(C4CC4)C(F)(F)F)n[nH]3)c2)o1)C(C)C (stereo partly shown) [Example 12.14]
- EC50: 80 nM
- Emax: 97%

SMILES: CCOC(=O)[C@@H](NC(=O)c1cnc(-c2cccc(-c3cc(C(=O)NC(CC)CC)n[nH]3)c2)o1)c1ccccc1 [Example 1.36, (S)-Ethyl 2-(2-(3-(3-(Pentan-3-Ylcarbamoyl)-1 H-Pyrazol-5-Yl)Phenyl)Oxazole-5-Carboxamido)-2-Phenylacetate]
- EC50: 1100 nM
- Emax: 102%

SMILES: CCC(CC)NC(=O)c1cnc(-c2cccc(-c3cc(C(=O)N[C@@H](C)[C@@H]4CCCO4)n[nH]3)c2)o1 (single isomer, unassigned) [3.0 (ii)]
- EC50: 950 nM
- Emax: 79%

SMILES: CCC(CC)NC(=O)c1cnc(-c2cccc(-c3cc(C(=O)NCC4CC4)n[nH]3)c2)o1 [Example 3.32, 2-(3-(3-((Cyclopropylmethyl)Carbamoyl)-1 H-Pyrazol-5-Yl)Phenyl)-N-(Pentan-3-Yl)Oxazole-5-Carboxamide]
- EC50: 110 nM
- Emax: 55%

SMILES: COC(=O)[C@@H](NC(=O)c1cnc(-c2cccc(-c3nnc(C(=O)N[C@@H](C)C4CC4)[nH]3)c2)o1)C(C)C [Example 12.3, (S)-Methyl 2-(2-(3-(5-(((S)-1-Cyclopropylethyl)Carbamoyl)-4H-1,2,4-Triazol-3-Yl)Phenyl)Oxazole-5-Carboxamido)-3-Methylbutanoate]
- EC50: 220 nM
- Emax: 92%

SMILES: CCC(CC)NC(=O)c1cnc(-c2cccc(-c3cn(CC(O)C(F)(F)F)c(C(=O)N[C@@H](C)C4CC4)n3)c2)o1 (stereo partly drawn) [Example 17.0, 2-(3-(2-(((S)-1-Cyclopropylethyl)Carbamoyl)-1-(3,3,3-Trifluoro-2-Hydroxypropyl)-1H-Imidazol-4-Yl)Phenyl)-N-(Pentan-3-Yl)Oxazole-5-Carboxamide]
- EC50: 790 nM
- Emax: 186%

SMILES: CCC(CC)NC(=O)c1nnc(-c2cccc(-c3ncc(C(=O)NC(CC)CC)o3)c2)[nH]1 [Example 13.3, N-(Pentan-3-Yl)-2-(3-(5-(Pentan-3-Ylcarbamoyl)-1 H-1,2,4-Triazol-3-Yl)Phenyl)Oxazole-5-Carboxamide]
- EC50: 50 nM
- Emax: 95%

SMILES: CCOC(=O)[C@H](NC(=O)c1cc(-c2cccc(-c3ncc(C(=O)NC(CC)CC)o3)c2)[nH]n1)c1ccccc1 [Example 3.59, (R)-Ethyl 2-(5-(3-(5-(Pentan-3-Ylcarbamoyl)Oxazol-2-Yl)Phenyl)-1H-Pyrazole-3-Carboxamido)-2-Phenylacetate Trifluoroacetate]
- EC50: 60 nM
- Emax: 106%

SMILES: CCOC(=O)[C@@H](NC(=O)c1cc(-c2cccc(-c3ncc(C(=O)NC(CC)CC)o3)c2)nn1CCN1CCOCC1)C(C)C [Example 7.0, (S)-Ethyl 3-Methyl-2-(1-(2-Morpholinoethyl)-3-(3-(5-(Pentan-3-Ylcarbamoyl)Oxazol-2-Yl)Phenyl)-1H-Pyrazole-5-Carboxamido)Butanoate]
- EC50: 440 nM
- Emax: 175%

SMILES: CCOC(=O)[C@@H](NC(=O)c1cnc(-c2cccc(-c3cc(C(=O)NC(C4CC4)C4CC4)n(CCO)n3)c2)o1)C(C)C [Example 4.4, (S)-Ethyl 2-(2-(3-(5-((Dicyclopropylmethyl)Carbamoyl)-1-(2-Hydroxyethyl)-1 H-Pyrazol-3-Yl)Phenyl)Oxazole-5-Carboxamido)-3-Methylbutanoate]
- EC50: 130 nM
- Emax: 172%

SMILES: CCC(CC)NC(=O)c1cc(-c2cccc(-c3ncc(C(=O)Nc4ccon4)o3)c2)[nH]n1 [Example 1.30, N-(Isoxazol-3-Yl)-2-(3-(3-(Pentan-3-Ylcarbamoyl)-1 H-Pyrazol-5-yl)Phenyl)Oxazole-5-Carboxamide]
- EC50: 870 nM
- Emax: 62%

SMILES: CCOC(=O)[C@H](NC(=O)c1cnc(-c2cccc(-c3cc(C(=O)NC(CC)CC)[nH]n3)c2)o1)C(C)C [Example 1.44, (R)-Ethyl 3-Methyl-2-(2-(3-(5-(Pentan-3-Ylcarbamoyl)-1H-Pyrazol-3-yl)Phenyl)Oxazole-5-Carboxamido)Butanoate]
- EC50: 510 nM
- Emax: 69%

SMILES: O=C(NC1CCCC1)c1cnc(-c2cccc(-c3cc(C(=O)NC4CCCC4)n(CCCO)n3)c2)o1 [Example 5.2, N-Cyclopentyl-2-(3-(5-(Cyclopentylcarbamoyl)-1-(3-Hydroxypropyl)-1H-Pyrazol-3-Yl)Phenyl)Oxazole-5-Carboxamide]
- EC50: 840 nM
- Emax: 201%

SMILES: CCC(CC)NC(=O)c1cc(-c2cccc(-c3ncc(C(=O)NC(C)(C)C)o3)c2)[nH]n1 [Example 1.13, N-(Tert-Butyl)-2-(3-(3-(Pentan-3-Ylcarbamoyl)-1H-Pyrazol-5-yl)Phenyl)Oxazole-5-Carboxamide]
- EC50: 400 nM
- Emax: 112%

SMILES: COC(=O)[C@H](CC1CCCCC1)NC(=O)c1cnc(-c2cccc(-c3nnc(C(=O)N[C@@H](C)C4CC4)[nH]3)c2)o1 [Example 12.17, (S)-Methyl 3-Cyclohexyl-2-(2-(3-(5-(((S)-1-Cyclopropylethyl)Carbamoyl)-4H-1,2,4-Triazol-3-Yl)Phenyl)Oxazole-5-Carboxamido)Propanoate]
- EC50: 470 nM
- Emax: 77%
